Measured values reported in US12521415B2, “Accelerating repair of mucosal injury using gold(III) compounds” (University of Kentucky Research Foundation, priority 2020, dated 2026).
“Also recorded” adds a separate entry of the source.

Legend:
[1] = test system: mouse liver mitochondria (complex I); experiment: AuPhos-induced OCR in mouse liver mitochondria; assay type: biochemical; conditions: complex I-driven, substrates pyruvate and succinate
Description: (§1) FIGS. 8A-8J present properties of AuPhos. FIG. 8A includes a chemical structure of AuPhos. FIG. 8B includes extrapolated AuPhos-induced OCR (complex I) in liver mitochondria. […] FIG. 8E provides weight change in AuPhos-treated mice over time. FIG. 8F presents stability of AuPhos in PBS and DMEM. FIG. 8G presents stability of AuPhos in PBS and DMEM. FIG. 8H includes an AuPhos-induced Heat map of DEG (left Panel), obtained using log 2(Fold Change) and p-Value <0.00001 thresholds in MDA-MB-231(107) cells (n=2), and the top six hits of KEGG analysis (right panel). FIG. 8I presents biodistribution and pharmacokinetics of AuPhos in different tissues; Colon, Small bowel, Lung, Kidney, Spleen, Liver, Heart and Blood after single dose (oral, 25 mg/kg) administration of AuPhos at 6 h, 12 h and 24 h. FIG. 8J presents biodistribution and pharmacokinetics of AuPhos in different tissues stool after single dose (oral, 25 mg/kg) administration of AuPhos at 6 h, 12 h and 24 h.
(§2) OxPHOS will be then be stimulated by subsequent addition of ADP followed by additional CI substrate glutamate (5 mM). […] Residual non-mitochondrial oxygen consumption will be determined by addition of complex III inhibitor antimycin-A (1 ug/ml). Oxygen consumption rate (OCR) of isolated mitochondria will also be evaluated using Oxygraph-2K or high-throughput Seahorse XFe24 Extracellular Flux Analyzer (Agilent Technologies). […]

colonic IEC = experiment: High-resolution respirometry (OCR), mtDNA and mRNA of colonic IEC from AuPhos-fed mice; assay type: in vivo, mouse
Description: FIG. 10B includes high resolution respirometry results showing OCR in mitochondrial complexes of IECs from (A). […] FIG. 10D provides results of RT-qPCR analysis of genes associated with mitochondrial respiratory enzymes in AuPhos vs. control DSS mice. Stats—2-way ANOVA with Sidak's multiple comparison test. ★★<0.01, ★★★<0.0001.
FIGS. 16A-16E illustrate the pharmacokinetics and effects of AuPhos on mitochondrial bioenergetics. FIG. 16A. Biodistribution and pharmacokinetics of AuPhos in different tissues; Colon, Small bowel, Spleen, Liver after a single intragastric (i.g.) gavage (25 mg/kg) with measurements of AuPhos tissue levels (graphite furnace atomic absorption spectroscopy) at times indicated. FIG. 16B. Mitochondrial uptake of AuPhos by measuring gold content in mitochondrial fractions in normal colonocytes (NCM460). FIG. 16C. High-resolution respirometry showing OCR in mitochondrial complexes of freshly isolated IECs from AuPhos (25 mg/kg; q3D×3 doses)-fed mice compared to controls (vehicle only). Stats—2-way ANOVA with Sidak's multiple comparison test. ß<0.05, ßß<0.01. FIG. 16D.
Isolated IECs will be suspended in a mitochondria respiration medium and integrated respiration evaluated using Oxygraph-2K (Oroboros Instruments). Briefly, the capacity of electron transport system (ETS) will be evaluated by direct titration of protonophore, carbonyl cyanide p-(trifluoromethoxy) phenylhydrazone ([…]) after stabilization of routine respiration. After routine endogenous respiratory phase, cells will be permeabilized with digitonin and complex I (CI) substrates malate and pyruvate (5 mM, respectively).
as §2

[2] = Toxicity (weight change) in AuPhos-treated mice over time; assay type: in vivo, mouse
Description: as §1
This observation was mitochondrial complex I-driven when different substrates, i.e. pyruvate and succinate, were used to measure the OCR. Transcriptomics was used to study global changes in mRNA in response to a 12 h exposure of AuPhos to MDA-MB-231 cells (FIG. 8H).

serum IL-6 = experiment: Anti-CD3 mAb-induced serum IL-6 in control and AuPhos-treated mice; assay type: in vivo, mouse; conditions: 25 mg/kg i.g. every 3d x2; anti-CD3 mAb injected
Description: FIG. 12A RT-qPCR analysis of cytokines and chemokine genes in AuPhos vs. controls at 9 and 13 days after DSS initiation. FIG. 12B RT-qPCR analysis of cytokines and chemokine genes in AuPhos vs. controls at 9 and 13 days after DSS initiation. FIG. 12C Quantitative RT-PCR analysis of inflammasome markers in D13 DSS mice. Statistical significance was determined using multiple t-test with Holm-Sidak's multiple method. FIG. 12D Serum IL-6 in AuPhos treated (n=4) and control mice, with or without anti-CD3 antibody. ★<0.05; ★★<0.01.
Findings in FIG. 9A-9D indicate that AuPhos attenuates tissue inflammation and enhances mucosal healing in DSS colitis mice. To interrogate the effects of AuPhos on Th1 and Treg cytokine production as well as chemokine and inflammasome mediators, mRNA from mice at time points indicated (as in FIG. 9A-9D). […] To test the question of whether AuPhos affected leukocytes directly, control and AuPhos-treated (25 mg/kg i.g. dosed every 3d×2) were injected with anti-CD3 mAb (antiTCR mAb). It is known that CD3 mAb induces a cytokine storm in the periphery and intestine.

Compound: [Cl][Au]1([c]2ccccc2Cc2ccccn2)[P](c2ccccc2)(c2ccccc2)c2ccccc2[P]1(c1ccccc1)c1ccccc1 [AuPhos]
- mitochondrial respiration (OCR) [1]: directly and rapidly enhances mitochondrial respiration; also recorded: significant increase in mitochondrial respiration induced by AuPhos in a dose-dependent manner
- OCR in IEC in vivo (colonic IEC; 25 mg/kg q3D x3 doses, freshly isolated colonic IEC, OROBOROS 2K): increased OCR in IEC in vivo from states II-V; also recorded: enhances mitochondrial respiration; also recorded: increased OCR (OxPHOS)
- mtDNA (mtDNA/nucDNA ratio) in IEC (colonic IEC; IEC from AuPhos-treated mice): increased mtDNA; also recorded: higher mtDNA/nucDNA ratio
- mRNA for mitochondrial CO1 and COX2 (colonic IEC; IEC from AuPhos-treated mice, RT-qPCR): increased
- liver toxicity ([2]; mice, data not shown): not observed
- toxicity in mice ([2]; over 20 days): no toxicity
- anti-CD3 induced increases in serum IL-6 (serum IL-6): did not affect
